Laboratory results published in PubChem BioAssay AID256 (DTP/NCI, 2004).
Several values for one entry are separate records, joined by “and”; a condition that tells them apart may be missing. Equal values may be shown once. Inconclusive results and toxic doses are left out.

Test system: CD2F1 mice, L1210 leukemia ip, survival T/C
Assay: NCI In Vivo Anticancer Drug Screen. Data for tumor model L1210 Leukemia (intraperitoneal) in CD2F1 (CDF1) mice
Conditions: higher = longer survival
Method in brief: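 Read-out first: treated-group measurement over vehicle-control measurement, expressed as a ratio. Animals bore a transplanted tumor line and were dosed with compound or vehicle.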

[1] = endpoint: mean survival time, dose: 100.0 mg/kg/injection, schedule: Q01DX001 (ip), vehicle: saline
[2] = endpoint: mean survival time, dose: 200.0 mg/kg/injection, schedule: Q01DX001 (ip), vehicle: saline
[3] = endpoint: mean survival time, dose: 100.0 mg/kg/injection, schedule: Q04DX003 (ip), vehicle: saline with Tween-80
[4] = endpoint: mean survival time, dose: 200.0 mg/kg/injection, schedule: Q04DX003 (ip), vehicle: saline with Tween-80
[5] = endpoint: mean survival time, dose: 400.0 mg/kg/injection, schedule: Q04DX003 (ip), vehicle: saline with Tween-80
[6] = endpoint: mean survival time, dose: 100.0 mg/kg/injection, schedule: Q01DX009 (ip), vehicle: saline with Tween-80
[7] = endpoint: mean survival time, dose: 200.0 mg/kg/injection, schedule: Q01DX009 (ip), vehicle: saline with Tween-80
[8] = endpoint: mean survival time, dose: 400.0 mg/kg/injection, schedule: Q01DX009 (ip), vehicle: saline with Tween-80
[9] = endpoint: mean survival time, dose: 50.0 mg/kg/injection, schedule: Q01DX009 (ip), vehicle: saline with Tween-80

With CS(=O)(=O)OCCCN(CCCOS(C)(=O)=O)CCCN1CCOCC1 the T/C (endpoint: mean survival time, dose: 10.0 mg/kg/injection, schedule: Q01DX009 (ip), vehicle: saline) was 197 % of control, the T/C (endpoint: mean survival time, dose: 12.0 mg/kg/injection, schedule: Q01DX001 (ip), vehicle: saline) was 118 % of control and the T/C (endpoint: mean survival time, dose: 12.5 mg/kg/injection, schedule: Q04DX003 (ip), vehicle: saline) was 122 % of control. The T/C (endpoint: mean survival time, dose: 20.0 mg/kg/injection, schedule: Q01DX001 (ip), vehicle: saline) was 150 % of control, the T/C (endpoint: mean survival time, dose: 20.0 mg/kg/injection, schedule: Q01DX005 (ip), vehicle: saline) was 152 % of control and the T/C (endpoint: mean survival time, dose: 20.0 mg/kg/injection, schedule: Q01DX009 (ip), vehicle: saline) was 230 % of control. The T/C (endpoint: mean survival time, dose: 20.0 mg/kg/injection, schedule: Q02DX003 (ip), vehicle: saline) was 152 % of control, the T/C (endpoint: mean survival time, dose: 20.0 mg/kg/injection, schedule: Q04DX003 (ip), vehicle: saline) was 156 % of control and the T/C (endpoint: mean survival time, dose: 40.0 mg/kg/injection, schedule: Q01DX001 (ip), vehicle: saline) was 200 % of control. For the same compound, the T/C (endpoint: mean survival time, dose: 40.0 mg/kg/injection, schedule: Q01DX005 (ip), vehicle: saline) was 182 % of control, the T/C (endpoint: mean survival time, dose: 40.0 mg/kg/injection, schedule: Q01DX009 (ip), vehicle: saline) was 238 % of control and the T/C (endpoint: mean survival time, dose: 40.0 mg/kg/injection, schedule: Q02DX003 (ip), vehicle: saline) was 166 % of control. For the same compound, the T/C (endpoint: mean survival time, dose: 50.0 mg/kg/injection, schedule: Q01DX009 (ip), vehicle: saline) was 180 % of control, the T/C (endpoint: mean survival time, dose: 50.0 mg/kg/injection, schedule: Q04DX003 (ip), vehicle: saline) was 122 % of control and the T/C (endpoint: mean survival time, dose: 60.0 mg/kg/injection, schedule: Q01DX001 (ip), vehicle: saline) was 159 % of control. For the same compound, the T/C (endpoint: mean survival time, dose: 60.0 mg/kg/injection, schedule: Q01DX005 (ip), vehicle: saline) was 189 % of control, the T/C (endpoint: mean survival time, dose: 60.0 mg/kg/injection, schedule: Q01DX009 (ip), vehicle: saline) was 230 % of control and the T/C (endpoint: mean survival time, dose: 60.0 mg/kg/injection, schedule: Q02DX003 (ip), vehicle: saline) was 191 % of control. The T/C (endpoint: mean survival time, dose: 60.0 mg/kg/injection, schedule: Q04DX003 (ip), vehicle: saline) was 190 % of control, the T/C (endpoint: mean survival time, dose: 75.0 mg/kg/injection, schedule: Q04DX003 (ip), vehicle: saline) was 162 % of control and the T/C (endpoint: mean survival time, dose: 80.0 mg/kg/injection, schedule: Q01DX005 (ip), vehicle: saline) was 234 % of control. The T/C (endpoint: mean survival time, dose: 80.0 mg/kg/injection, schedule: Q01DX009 (ip), vehicle: saline) was 290 % of control, the T/C (endpoint: mean survival time, dose: 80.0 mg/kg/injection, schedule: Q02DX003 (ip), vehicle: saline) was 189 % of control and the T/C (endpoint: mean survival time, dose: 80.0 mg/kg/injection, schedule: Q04DX003 (ip), vehicle: saline) was 206 % of control. For the same compound, the T/C [1] was 153 % of control and 265 % of control, the T/C (endpoint: mean survival time, dose: 100.0 mg/kg/injection, schedule: Q01DX005 (ip), vehicle: saline) was 281 % of control and the T/C (endpoint: mean survival time, dose: 100.0 mg/kg/injection, schedule: Q01DX009 (ip), vehicle: saline) was 190 % of control and 270 % of control. The T/C (endpoint: mean survival time, dose: 100.0 mg/kg/injection, schedule: Q02DX003 (ip), vehicle: saline) was 215 % of control, the T/C (endpoint: mean survival time, dose: 100.0 mg/kg/injection, schedule: Q04DX003 (ip), vehicle: saline) was 165 % of control and 236 % of control and the T/C (endpoint: mean survival time, dose: 150.0 mg/kg/injection, schedule: Q04DX003 (ip), vehicle: saline) was 197 % of control. For the same compound, the T/C [2] was 234 % of control, the T/C (endpoint: mean survival time, dose: 200.0 mg/kg/injection, schedule: Q01DX009 (ip), vehicle: saline) was 105 % of control and the T/C (endpoint: mean survival time, dose: 200.0 mg/kg/injection, schedule: Q04DX003 (ip), vehicle: saline) was 228 % of control and 297 % of control.

NC(=O)CC(NC(=O)OCc1ccccc1)C(=O)O (centres undefined) was tested, and the T/C [3] was 95 % of control, the T/C [4] was 101 % of control and the T/C [5] was 93 % of control.

For c1ccc2c(c1)Nc1ccccc1S2, the T/C [6] was 92 % of control, the T/C [3] was 98 % of control and the T/C [7] was 92 % of control. The T/C [4] was 108 % of control, the T/C [8] was 89 % of control and the T/C [5] was 101 % of control.

In the case of O=c1oc2c(ccc3ccccc32)c(O)c1-c1cccc2ccccc12, the T/C [9] is reported as 103 % of control, the T/C [6] is reported as 100 % of control and the T/C [7] is reported as 93 % of control.

With Cc1ccccc1NC(=O)c1ccccc1 the T/C [6] was 97 % of control, the T/C [7] was 100 % of control and the T/C [8] was 91 % of control.

In the case of O=CNCCc1ccc2c(c1)[nH]c1ccccc12, the T/C [1] is reported as 95 % of control, the T/C [2] is reported as 98 % of control and the T/C (endpoint: mean survival time, dose: 400.0 mg/kg/injection, schedule: Q01DX001 (ip), vehicle: saline) is reported as 98 % of control.

In the case of NC1=CC(=O)c2ccccc2C1=O, the T/C [9] is reported as 96 % of control and the T/C [6] is reported as 100 % of control.

In the case of CC1(C)C2CCC1(C)C(OCCCN=C(N)CSS(=O)(=O)O)C2 (centres undefined), the T/C (endpoint: mean survival time, dose: 9.4 mg/kg/injection, schedule: Q04DX002 (ip), vehicle: saline with Tween-80) is reported as 95 % of control, the T/C (endpoint: mean survival time, dose: 18.7 mg/kg/injection, schedule: Q04DX002 (ip), vehicle: saline with Tween-80) is reported as 109 % of control and the T/C (endpoint: mean survival time, dose: 37.5 mg/kg/injection, schedule: Q04DX002 (ip), vehicle: saline with Tween-80) is reported as 112 % of control.

With COc1cc2c(c3c1c(=O)c1cccc(F)c1n3C)C=CC(C)(C)O2 the T/C (endpoint: median survival time, dose: 50.0 mg/kg/injection, schedule: Q01DX009 (ip), vehicle: Klucel (hydroxypropylcellulose) (HPC)) was 118 % of control, the T/C (endpoint: median survival time, dose: 100.0 mg/kg/injection, schedule: Q01DX009 (ip), vehicle: Klucel (hydroxypropylcellulose) (HPC)) was 117 % of control and the T/C (endpoint: median survival time, dose: 200.0 mg/kg/injection, schedule: Q01DX009 (ip), vehicle: Klucel (hydroxypropylcellulose) (HPC)) was 120 % of control and 90 % of control.
